Measured values published in ChEMBL document CHEMBL3045270, “Synthesis and Fungicidal Activities of Heterocyclic Compounds Having -Methoxyimino-2-phenoxymethylbenzyl Group” (2000).

Experiments:
Format in all cases: functional
Podosphaera fuliginea [1] = assay: Fungicidal activity against Podosphaera fuliginea infected cucumber plant at 31.3 ppm by foliar application
Botrytis cinerea [2] = assay: Fungicidal activity against Botryotinia fuckeliana infected cucumber plant at 500 ppm by foliar application
Podosphaera fuliginea [3] = assay: Fungicidal activity against Podosphaera fuliginea infected cucumber plant at 500 ppm by foliar application
Podosphaera fuliginea [4] = assay: Fungicidal activity against Podosphaera fuliginea infected cucumber plant at 7.8 ppm by foliar application
Podosphaera fuliginea [5] = assay: Fungicidal activity against Podosphaera fuliginea infected cucumber plant at 125 ppm by foliar application
Botrytis cinerea [6] = assay: Curative fungicidal activity against Botryotinia fuckeliana infected cucumber plant at 31.3 ppm by foliar application
Botrytis cinerea [7] = assay: Preventive fungicidal activity against Botryotinia fuckeliana infected cucumber plant at 7.8 ppm by foliar application
Botrytis cinerea [8] = assay: Curative fungicidal activity against Botryotinia fuckeliana infected cucumber plant at 7.8 ppm by foliar application
Podosphaera fuliginea [9] = assay: Preventive fungicidal activity against Podosphaera fuliginea infected cucumber plant at 7.8 ppm by foliar application
Podosphaera fuliginea [10] = assay: Curative fungicidal activity against Podosphaera fuliginea infected cucumber plant at 31.3 ppm by foliar application
Podosphaera fuliginea [11] = assay: Preventive fungicidal activity against Podosphaera fuliginea infected cucumber plant at 31.3 ppm by foliar application
Botrytis cinerea [12] = assay: Preventive fungicidal activity against Botryotinia fuckeliana infected cucumber plant at 31.3 ppm by foliar application
Podosphaera fuliginea [13] = assay: Curative fungicidal activity against Podosphaera fuliginea infected cucumber plant at 7.8 ppm by foliar application
Botrytis cinerea [14] = assay: Fungicidal activity against Botryotinia fuckeliana infected cucumber plant at 125 ppm by foliar application
Botrytis cinerea [15] = assay: Fungicidal activity against Botryotinia fuckeliana infected cucumber plant at 31.3 ppm by foliar application
Botrytis cinerea [16] = assay: Fungicidal activity against Botryotinia fuckeliana infected cucumber plant at 7.8 ppm by foliar application

SMILES | Activity (Botrytis cinerea [2]) | Activity (Podosphaera fuliginea [3]) | Activity (Podosphaera fuliginea [4]) | other results
CO/N=C(/c1nnco1)c1ccccc1COc1ccccc1 | <50% |  |  | Activity (Podosphaera fuliginea [1]): 90%
CO/N=C(/c1nnco1)c1ccccc1COc1ccc(Cl)cc1 | <50% | 90% |  | 
CO/N=C(/c1nnc(C)o1)c1ccccc1COc1cc(C)ccc1C | <50% |  | 90% | 
CO/N=C(/c1ccccc1COc1ccc(Cl)cc1C)c1nccn1C | <50% | 90% |  | 
CO/N=C(\c1ccccc1COc1ccc(Cl)cc1)c1nccn1C | <50% |  | 90% | 
CON=C(c1cccs1)c1ccccc1COc1cc(C)ccc1C (mixture of isomers) | <50% | <90% |  | 
CO/N=C(\c1ccccc1COc1cc(Cl)ccc1Cl)c1nccn1C | <50% |  | 90% | 
CON=C(c1cnco1)c1ccccc1COc1cc(C)ccc1C (mixture of isomers) | <50% | 90% |  | 
CO/N=C(/c1nnco1)c1ccccc1COc1cccc(Cl)c1 | <50% |  |  | Activity (Podosphaera fuliginea [5]): 90%
CON=C(c1ccco1)c1ccccc1COc1cc(C)ccc1C (mixture of isomers) | <50% | 90% |  | 
CO/N=C(\c1ccccc1COc1cc(C)ccc1C)c1nnnn1C | <50% | <90% |  | 
CNC(=O)/C(=N/OC)c1ccccc1Oc1ccccc1 [METOMINOSTROBIN] |  |  |  | Activity (Botrytis cinerea [6]): 40%; Activity (Botrytis cinerea [7]): 30%; Activity (Botrytis cinerea [8]): 30%; Activity (Podosphaera fuliginea [9]): 70%; Activity (Podosphaera fuliginea [10]): 97%; Activity (Podosphaera fuliginea [11]): 100%; Activity (Botrytis cinerea [12]): 55%; Activity (Podosphaera fuliginea [13]): 70%
CON=C(c1cc(C)ns1)c1ccccc1COc1cc(C)ccc1C (mixture of isomers) | <50% | <90% |  | 
CON=C(c1nccs1)c1ccccc1COc1cc(C)ccc1C (mixture of isomers) | <50% | <90% |  | 
CO/N=C(/c1noc(C)n1)c1ccccc1COc1cc(C)ccc1C | <50% |  |  | Activity (Podosphaera fuliginea [1]): 90%
CO/N=C(/c1nnco1)c1ccccc1COc1cc(C)ccc1C |  |  | 90% | Activity (Botrytis cinerea [14]): <90%
CO/N=C(\c1ccccc1COc1ccccc1)c1nccn1C | <50% | 90% |  | 
CON=C(c1ccccc1COc1cc(C)ccc1C)c1nccn1C (mixture of isomers) |  |  | 90% | Activity (Botrytis cinerea [15]): <90%
CO/N=C(/c1ncn[nH]1)c1ccccc1COc1cc(C)ccc1C | <50% | <90% |  | 
CO/N=C(/c1nnco1)c1ccccc1COc1cc(Cl)ccc1Cl | <50% |  | 90% | 
CO/N=C(\c1ccccc1COc1ccc(C)cc1)c1nccn1C | <50% |  | 90% | 

SMILES | Activity (Botrytis cinerea [2]) | Activity (Podosphaera fuliginea [3]) | Activity (Podosphaera fuliginea [4]) | other results
CO/N=C(/c1nnco1)c1ccccc1COc1cccc(C)c1 | <50% |  |  | Activity (Podosphaera fuliginea [5]): 90%
CO/N=C(/c1nnco1)c1ccccc1COc1ccccc1Cl | <50% |  |  | Activity (Podosphaera fuliginea [1]): 90%
CO/N=C(\c1ccccc1COc1ccccc1C)c1nccn1C |  |  | 90% | Activity (Botrytis cinerea [14]): <90%
CO/N=C(/c1nnco1)c1ccccc1COc1ccc(Cl)cc1Cl | <50% |  | 90% | 
CO/N=C(\c1nnco1)c1ccccc1COc1ccc(Cl)cc1C | <50% |  |  | Activity (Podosphaera fuliginea [5]): 90%
CO/N=C(\c1ccccc1COc1cc(C)ccc1C)c1snnc1C | <50% |  |  | Activity (Podosphaera fuliginea [5]): 90%
CO/N=C(\c1ccccc1COc1ccc(Cl)cc1Cl)c1nccn1C | <50% |  | 90% | 
CO/N=C(/c1nnco1)c1ccccc1COc1ccc(Cl)cc1C |  |  | 90% | Activity (Botrytis cinerea [6]): 50%; Activity (Botrytis cinerea [7]): 30%; Activity (Botrytis cinerea [8]): 30%; Activity (Podosphaera fuliginea [9]): 100%; Activity (Podosphaera fuliginea [10]): 100%; Activity (Podosphaera fuliginea [11]): 100%; Activity (Botrytis cinerea [15]): <90%; Activity (Botrytis cinerea [12]): 65%; Activity (Podosphaera fuliginea [13]): 100%
CO/N=C(/c1ncon1)c1ccccc1COc1cc(C)ccc1C | <50% |  |  | Activity (Podosphaera fuliginea [1]): 90%
CO/N=C(\c1ccccc1COc1cc(C)ccc1C)c1ncnn1C | <50% | <90% |  | 
CO/N=C(\c1ccccc1COc1ccc(Cl)cc1C)c1nccn1C |  |  | 90% | Activity (Botrytis cinerea [16]): <90%; Activity (Botrytis cinerea [6]): 55%; Activity (Botrytis cinerea [7]): 60%; Activity (Botrytis cinerea [8]): 55%; Activity (Podosphaera fuliginea [9]): 100%; Activity (Podosphaera fuliginea [10]): 100%; Activity (Podosphaera fuliginea [11]): 100%; Activity (Botrytis cinerea [12]): 55%; Activity (Podosphaera fuliginea [13]): 100%
CON=C(c1ccccc1COc1cc(C)ccc1C)c1ccnn1C (mixture of isomers) | <50% | <90% |  | 
CO/N=C(\c1ccccc1COc1cccc(C)c1)c1nccn1C | <50% |  |  | Activity (Podosphaera fuliginea [5]): 90%
CO/N=C(/c1nnco1)c1ccccc1COc1ccccc1C |  |  | 90% | Activity (Botrytis cinerea [14]): <90%
CO/N=C(/c1nnco1)c1ccccc1COc1ccccc1OC | <50% | 90% |  | 
CO/N=C(\c1ccccc1COc1ccccc1Cl)c1nccn1C | <50% |  | 90% | 
CO/N=C(/c1ncno1)c1ccccc1COc1cc(C)ccc1C | <50% | <90% |  | 
CO/N=C(\c1ccccc1COc1ccccc1OC)c1nccn1C | <50% | 90% |  | 
CO/N=C(\c1ccccc1COc1cccc(Cl)c1)c1nccn1C | <50% |  | 90% | 
CO/N=C(/c1ccon1)c1ccccc1COc1ccc(C)cc1C |  |  |  | Activity (Botrytis cinerea [6]): 30%; Activity (Botrytis cinerea [7]): 20%; Activity (Botrytis cinerea [8]): 30%; Activity (Podosphaera fuliginea [9]): 100%; Activity (Podosphaera fuliginea [10]): 100%; Activity (Podosphaera fuliginea [11]): 100%; Activity (Botrytis cinerea [12]): 40%; Activity (Podosphaera fuliginea [13]): 100%
